From ChEMBL document CHEMBL1201862, “PubChem BioAssay data set” (2004)
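Each compound was tested at five concentrations against cells in 96-well plates for 48 hours. GI50: concentration for 50% inhibition of growth.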 Calls of active or inactive are those of the source. Cut-off read from the data, not from the text of the source: active = GI50 up to about 1.1 µM and inactive = higher.

Key:
Assay in all cases: growth of human tumour cells (NCI), 48 h
HOP-92 = test system: HOP-92
SK-MEL-5 = test system: SK-MEL-5
MDA-MB-231 = test system: MDA-MB-231
SF-295 = test system: SF-295
SR = test system: SR
OVCAR-8 = test system: OVCAR-8
NCI-H522 = test system: NCI-H522
EKVX = test system: EKVX
HOP-62 = test system: HOP-62
SN12C = test system: SN12C
M14 = test system: M14
SNB-75 = test system: SNB-75
OVCAR-4 = test system: OVCAR-4
HT-29 = test system: HT-29
SK-MEL-2 = test system: SK-MEL-2
UACC-257 = test system: UACC-257
OVCAR-3 = test system: OVCAR-3
SW-620 = test system: SW-620
HCT-15 = test system: HCT-15
NCI/ADR-RES = test system: NCI/ADR-RES
ACHN = test system: ACHN
PC-3 = test system: PC-3
LOX IMVI = test system: LOX IMVI
A549 = test system: A549
Malme-3M = test system: Malme-3M
COLO 205 = test system: COLO 205
UACC-62 = test system: UACC-62
T47D = test system: T47D
Hs-578T = test system: Hs-578T
IGROV-1 = test system: IGROV-1
SF-268 = test system: SF-268
NCI-H460 = test system: NCI-H460
SK-OV-3 = test system: SK-OV-3
OVCAR-5 = test system: OVCAR-5
RXF 393 = test system: RXF 393
NCI-H226 = test system: NCI-H226
MCF7 = test system: MCF7
U-251 = test system: U-251
K562 = test system: K562
DU-145 = test system: DU-145
CAKI-1 = test system: CAKI-1
786-0 = test system: 786-0
A498 = test system: A498
BT-549 = test system: BT-549
MOLT-4 = test system: MOLT-4
KM12 = test system: KM12
TK-10 = test system: TK-10
MDA-N = test system: MDA-N
HL-60 = test system: HL-60
UO-31 = test system: UO-31
HCT-116 = test system: HCT-116
CCRF-CEM = test system: CCRF-CEM
SK-MEL-28 = test system: SK-MEL-28
RPMI-8226 = test system: RPMI-8226
SF-539 = test system: SF-539
HCC 2998 = test system: HCC 2998
MDA-MB-435 = test system: MDA-MB-435
SNB-19 = test system: SNB-19
NCI-H23 = test system: NCI-H23

c1cc2nnc1SCCSCCSCCSc1ccc(nn1)SCCSCCSCCS2
GI50 (HOP-92): 57.4 µM (inactive) | GI50 (SK-MEL-5): > 100 µM (inactive) | GI50 (MDA-MB-231): > 100 µM (inactive) | GI50 (SF-295): > 100 µM (inactive) | GI50 (SR): > 100 µM (inactive) | GI50 (OVCAR-8): > 100 µM (inactive) | GI50 (NCI-H522): > 100 µM (inactive) | GI50 (EKVX): > 100 µM (inactive) | GI50 (HOP-62): 44.9 µM (inactive) | GI50 (SN12C): > 100 µM (inactive) | GI50 (M14): > 100 µM (inactive) | GI50 (SNB-75): 45.7 µM (inactive) | GI50 (OVCAR-4): > 100 µM (inactive) | GI50 (HT-29): > 100 µM (inactive) | GI50 (SK-MEL-2): > 100 µM (inactive) | GI50 (UACC-257): > 100 µM (inactive) | GI50 (OVCAR-3): > 100 µM (inactive) | GI50 (SW-620): > 100 µM (inactive) | GI50 (HCT-15): > 100 µM | GI50 (NCI/ADR-RES): > 100 µM (inactive) | GI50 (ACHN): > 100 µM (inactive) | GI50 (PC-3): > 100 µM (inactive) | GI50 (LOX IMVI): > 100 µM (inactive) | GI50 (A549): > 100 µM (inactive) | GI50 (Malme-3M): > 100 µM (inactive) | GI50 (COLO 205): > 100 µM (inactive) | GI50 (UACC-62): > 100 µM (inactive) | GI50 (T47D): > 100 µM (inactive) | GI50 (Hs-578T): 64.7 µM (inactive) | GI50 (IGROV-1): > 100 µM (inactive) | GI50 (SF-268): > 100 µM (inactive) | GI50 (NCI-H460): > 100 µM (inactive) | GI50 (SK-OV-3): > 100 µM (inactive)

CC(C)(C)OC(=O)CN1CCNCCN(CC(=O)OC(C)(C)C)CCNCC1
GI50 (HOP-92): > 100 µM (inactive) | GI50 (OVCAR-5): > 100 µM (inactive) | GI50 (RXF 393): > 100 µM (inactive) | GI50 (SK-MEL-5): 50.6 µM (inactive) | GI50 (MDA-MB-231): > 100 µM (inactive) | GI50 (SF-295): > 100 µM (inactive) | GI50 (NCI-H226): > 100 µM (inactive) | GI50 (MCF7): > 100 µM (inactive) | GI50 (U-251): 78.2 µM (inactive) | GI50 (SR): 26.9 µM (inactive) | GI50 (OVCAR-8): > 100 µM (inactive) | GI50 (NCI-H522): > 100 µM (inactive) | GI50 (EKVX): > 100 µM (inactive) | GI50 (HOP-62): > 100 µM (inactive) | GI50 (SN12C): > 100 µM (inactive) | GI50 (K562): 47 µM (inactive) | GI50 (DU-145): > 100 µM (inactive) | GI50 (CAKI-1): > 100 µM (inactive) | GI50 (SNB-75): > 100 µM (inactive) | GI50 (786-0): > 100 µM (inactive) | GI50 (OVCAR-4): > 100 µM (inactive) | GI50 (A498): > 100 µM (inactive) | GI50 (HT-29): 33.3 µM (inactive) | GI50 (SK-MEL-2): > 100 µM (inactive) | GI50 (BT-549): > 100 µM (inactive) | GI50 (UACC-257): > 100 µM (inactive) | GI50 (OVCAR-3): > 100 µM (inactive) | GI50 (SW-620): > 100 µM (inactive) | GI50 (MOLT-4): 64.7 µM (inactive) | GI50 (KM12): 98.9 µM (inactive) | GI50 (HCT-15): > 100 µM | GI50 (NCI/ADR-RES): > 100 µM (inactive) | GI50 (ACHN): > 100 µM (inactive) | GI50 (PC-3): > 100 µM (inactive) | GI50 (TK-10): > 100 µM (inactive) | GI50 (LOX IMVI): 86.7 µM (inactive) | GI50 (A549): 82 µM (inactive) | GI50 (MDA-N): 65.6 µM (inactive) | GI50 (COLO 205): > 100 µM (inactive) | GI50 (HL-60): 36.2 µM (inactive) | GI50 (UO-31): > 100 µM (inactive) | GI50 (UACC-62): > 100 µM (inactive) | GI50 (HCT-116): 26.2 µM (inactive) | GI50 (Hs-578T): > 100 µM (inactive) | GI50 (IGROV-1): > 100 µM (inactive) | GI50 (CCRF-CEM): 57 µM (inactive) | GI50 (SK-MEL-28): > 100 µM (inactive) | GI50 (RPMI-8226): 70 µM (inactive) | GI50 (SF-539): > 100 µM (inactive) | GI50 (NCI-H460): 63.2 µM (inactive) | GI50 (HCC 2998): > 100 µM (inactive) | GI50 (MDA-MB-435): 98.9 µM (inactive) | GI50 (SK-OV-3): > 100 µM (inactive) | GI50 (SNB-19): > 100 µM (inactive)

Cc1ccc(S(=O)(=O)N(CCN)c2cc3c4c(c2)Oc2cccc5c2C4c2c(cccc2O3)O5)cc1
GI50 (HOP-92): 0.9 µM (active) | GI50 (OVCAR-5): 21.2 µM (inactive) | GI50 (SK-MEL-5): 19.9 µM (inactive) | GI50 (MDA-MB-231): 17.9 µM (inactive) | GI50 (SF-295): 21.9 µM (inactive) | GI50 (NCI-H226): 12.4 µM (inactive) | GI50 (MCF7): 20.7 µM (inactive) | GI50 (U-251): 19.6 µM (inactive) | GI50 (SR): 0.724 µM (active) | GI50 (OVCAR-8): 11.1 µM (inactive) | GI50 (EKVX): 13.6 µM (inactive) | GI50 (HOP-62): 15.4 µM (inactive) | GI50 (SN12C): 34 µM (inactive) | GI50 (K562): 30 µM (inactive) | GI50 (M14): 25.6 µM (inactive) | GI50 (SNB-75): 12.6 µM (inactive) | GI50 (786-0): 16.6 µM (inactive) | GI50 (OVCAR-4): > 10 µM (inactive) | GI50 (A498): 55.3 µM (inactive) | GI50 (HT-29): 14.9 µM (inactive) | GI50 (SK-MEL-2): 22.8 µM (inactive) | GI50 (BT-549): 47.2 µM (inactive) | GI50 (UACC-257): 30.5 µM (inactive) | GI50 (OVCAR-3): 20 µM (inactive) | GI50 (SW-620): 36.5 µM (inactive) | GI50 (MOLT-4): 18.5 µM (inactive) | GI50 (KM12): > 100 µM (inactive) | GI50 (HCT-15): 81.1 µM | GI50 (NCI/ADR-RES): 10.7 µM (inactive) | GI50 (ACHN): 44.7 µM (inactive) | GI50 (PC-3): 18.7 µM (inactive) | GI50 (TK-10): 48.9 µM (inactive) | GI50 (LOX IMVI): 23.2 µM (inactive) | GI50 (A549): 25.7 µM (inactive) | GI50 (Malme-3M): 10.5 µM (inactive) | GI50 (MDA-N): 23.8 µM (inactive) | GI50 (COLO 205): 22.6 µM (inactive) | GI50 (UO-31): > 100 µM (inactive) | GI50 (UACC-62): 47.3 µM (inactive) | GI50 (HCT-116): 16.3 µM (inactive) | GI50 (Hs-578T): 17 µM (inactive) | GI50 (IGROV-1): 11 µM (inactive) | GI50 (CCRF-CEM): 22.7 µM (inactive) | GI50 (SK-MEL-28): 25.2 µM (inactive) | GI50 (NCI-H23): 36.1 µM (inactive) | GI50 (RPMI-8226): 30.8 µM (inactive) | GI50 (SF-539): 18.8 µM (inactive) | GI50 (SF-268): 14.4 µM (inactive) | GI50 (NCI-H460): > 100 µM (inactive) | GI50 (HCC 2998): > 100 µM (inactive) | GI50 (MDA-MB-435): 20.7 µM (inactive) | GI50 (SK-OV-3): 27 µM (inactive) | GI50 (SNB-19): 29.4 µM (inactive)
